Laboratory results taken from patent US5696108A, “Protein kinase C inhibitors” (Eli Lilly and Company, priority 1996, dated 1997).
Counter-ions that a name gives are not always drawn.

Tests used:
Settings in all cases: Table 1
PKC-α = PKC-α (Homo sapiens, UniProt P17252); experiment: PKC Enzyme Assay, alpha isozyme; format: biochemical
Method: (§1) PKC enzymes=alpha, beta I, beta II, gamma, delta, epsilon, eta and zeta.
(§2) Assay components in a total volume of 250 μL are as follows:
(§3) For all the enzymes either histone type HL (Worthington) or myelin basic protein is used as substrate. The assay is started by addition of protein kinase C enzyme incubated at 30° C. for 10 minutes and stopped by adding 0.5 mL of cold trichloroacetic acid (Amresco) followed by 100 μL of 1 mg/mL bovine serum albumin (Sigma, St. Louis, Mo.). The precipitate is collected by vacuum filtration on glass fiber filters employing a TOMTEC™ filtration system and quantified by counting in a beta scintillation counter.

PKC-β2 = PKC-β2 (Homo sapiens, UniProt P05771); experiment: PKC Enzyme Assay, beta-2 isozyme; format: biochemical
Method: as §1, §2, §3

src = biological target: T1, src (Homo sapiens, UniProt P12931); experiment: Protein Tyrosine Kinase Assay (src); format: biochemical
T1 construct: purchased Onogene Science, Inc. PK02 and PK03
Method: Protein Tyrosine Kinase Assay (src)
The Assay components are the following:
4 μL DMSO or DMSO/inhibitor

PKC-β1 = PKC-β1 (Homo sapiens, UniProt P05771); experiment: PKC Enzyme Assay, beta-1 isozyme; format: biochemical
Method: as §1, §2, §3

[1] = biological target: T2, cAMP-dependent kinase catalytic subunit (Bos taurus, UniProt P00517); experiment: cAMP-Dependent protein Kinase Catalytic Subunit Assay; format: biochemical, bovine
T2 construct: purchased Sigma, St. Louis, Mo; host or cells: bovine heart
Method: cAMP-Dependent protein Kinase Catalytic Subunit Assay (PEA) The Assay components are in a total volume of 250 μL: 20 mM HEPES (Sigma, St. Louis, Mo.) buffer pH 7.5, 200 μg/mL histone type HL (Worthington), 10 mM magnesium chloride (Sigma, St. […] The reaction is initiated by addition of bovine heart cAMP-dependent kinase catalytic subunit (Sigma, St. Louis, Mo.), incubated to 30° C. for 10 minutes and stopped by adding 0.5 mL ice cold Trichloroacetic acid (Amresco) followed by 100 μL of 1 mg/mL bovine serum albumin (Sigma). The precipitate is collected by vacuum filtrated on glass fiber filters employing a TOMTEC™ and quantified by counting in a beta scintillation counter. This assay is done identical to the protein kinase C (PKC) enzyme assay except that no phospholipids or diacylglycerol are employed in the assay and the histone substrate is specific for the cAMP-dependent catalytic subunit enzyme.

casein protein kinase II = biological target: T3, casein protein kinase II (Rattus norvegicus, UniProt P19139); experiment: Casein Protein Kinase II Assay (CK-II); format: biochemical
T3 construct: isolated from rat brain homogenate; from tissue; host or cells: rat brain homogenate
Method: Casein Protein Kinase II Assay (CK-II)
The Casein Protein Kinase II Assay is described in Neurochem. […] The assay components are in a total volume of 250 μL: 20 mM Tris-HCl, pH 7.5, 5 mM sodium fluoride, 50 mg/mL Casein (Sigma, St. Louis, Mo.), 10 mM magnesium chloride (Sigma, St. Louis, Mo.), 10 μL DMSO or DMSO/inhibitor and 30 μm (gamma-32P) ATP (DuPont). Initiation of the reaction is performed by addition of casein protein kinase II (isolated from rat brain homogenate), incubated at room temperature for 10 minutes and stopped by the addition of 0.5 mL ice cold Trichloroacetic acid (Amresco) followed by 100 μL of 1 mg/mL bovine serum albumin (Sigma, St. Louis, Mo.). The precipitate is collected by vacuum filtration on glass fiber filters and quantified by counting in a beta scintillation counter.
Assay components in order of addition
10 μL or DMSO or DMSO/inhibitor
25 μL of AT32P in 300 μM magnesium chloride
40 μL of enzyme (undiluted)
Buffer prepared as follows:
(Final volume=3.5 mL: amount of 20 assays)

[2] = biological target: calcium calmodulin dependent protein kinase; experiment: Calcium Calmodulin Dependent Protein Kinase Assay (CAM); format: biochemical, rat
Method: Calcium Calmodulin Dependent Protein Kinase Assay (CAM)
The reaction is initiated by the addition of calcium calmodulin dependent protein kinase (isolated from rat brain homogenate), incubated at room temperature for 10 minutes and stopped by adding 0.5 mL ice cold trichloroacetic acid (Amresco) followed by 100 μL of 1 mg/mL bovine serum albumin (Sigma, St. Louis, Mo.). The precipitate is collected by vacuum filtration on glass fiber filters and quantified by counting in a beta scintillation counter.
25 μL calmodulin (250 μg/mL)
10 μL DMSO or DMSO/inhibitor

Sequence of PKC-β1 (P05771 whole entry): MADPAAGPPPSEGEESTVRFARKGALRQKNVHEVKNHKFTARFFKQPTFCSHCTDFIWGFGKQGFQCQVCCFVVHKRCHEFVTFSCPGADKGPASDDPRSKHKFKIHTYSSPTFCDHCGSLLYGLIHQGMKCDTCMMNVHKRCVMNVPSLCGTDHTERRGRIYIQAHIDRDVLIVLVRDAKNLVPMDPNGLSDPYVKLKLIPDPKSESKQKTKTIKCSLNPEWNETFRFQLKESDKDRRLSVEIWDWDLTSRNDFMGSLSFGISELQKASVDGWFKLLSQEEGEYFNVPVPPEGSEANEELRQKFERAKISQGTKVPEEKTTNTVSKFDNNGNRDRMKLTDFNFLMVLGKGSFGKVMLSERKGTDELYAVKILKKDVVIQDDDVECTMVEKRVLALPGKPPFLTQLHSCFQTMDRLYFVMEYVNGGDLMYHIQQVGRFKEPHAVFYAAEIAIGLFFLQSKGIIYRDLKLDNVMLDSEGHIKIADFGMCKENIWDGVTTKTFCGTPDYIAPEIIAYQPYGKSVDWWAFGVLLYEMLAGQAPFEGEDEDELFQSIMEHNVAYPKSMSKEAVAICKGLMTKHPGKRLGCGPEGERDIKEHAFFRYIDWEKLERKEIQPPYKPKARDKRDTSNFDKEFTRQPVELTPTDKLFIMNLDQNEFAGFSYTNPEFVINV
Sequence of PKC-β2 (P05771 1-673 isoform P05771-2): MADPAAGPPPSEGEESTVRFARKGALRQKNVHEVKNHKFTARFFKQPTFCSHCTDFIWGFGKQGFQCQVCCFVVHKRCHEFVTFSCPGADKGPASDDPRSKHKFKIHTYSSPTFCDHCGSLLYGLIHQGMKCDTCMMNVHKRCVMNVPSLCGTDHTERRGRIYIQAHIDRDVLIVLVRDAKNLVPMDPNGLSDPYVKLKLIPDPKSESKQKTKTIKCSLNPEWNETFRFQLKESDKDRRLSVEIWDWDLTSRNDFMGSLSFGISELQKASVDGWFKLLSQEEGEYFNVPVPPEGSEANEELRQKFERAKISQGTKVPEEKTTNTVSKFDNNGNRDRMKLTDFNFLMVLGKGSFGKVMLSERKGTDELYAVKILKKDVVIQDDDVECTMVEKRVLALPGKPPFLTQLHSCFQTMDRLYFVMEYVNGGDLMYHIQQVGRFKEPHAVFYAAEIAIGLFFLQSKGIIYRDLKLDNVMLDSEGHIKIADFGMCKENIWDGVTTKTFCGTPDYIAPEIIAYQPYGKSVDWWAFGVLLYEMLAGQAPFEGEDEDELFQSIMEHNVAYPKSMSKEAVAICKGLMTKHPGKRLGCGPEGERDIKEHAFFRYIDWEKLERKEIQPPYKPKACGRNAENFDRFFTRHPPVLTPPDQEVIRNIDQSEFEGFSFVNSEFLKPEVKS
T3 sequence (P19139 whole entry): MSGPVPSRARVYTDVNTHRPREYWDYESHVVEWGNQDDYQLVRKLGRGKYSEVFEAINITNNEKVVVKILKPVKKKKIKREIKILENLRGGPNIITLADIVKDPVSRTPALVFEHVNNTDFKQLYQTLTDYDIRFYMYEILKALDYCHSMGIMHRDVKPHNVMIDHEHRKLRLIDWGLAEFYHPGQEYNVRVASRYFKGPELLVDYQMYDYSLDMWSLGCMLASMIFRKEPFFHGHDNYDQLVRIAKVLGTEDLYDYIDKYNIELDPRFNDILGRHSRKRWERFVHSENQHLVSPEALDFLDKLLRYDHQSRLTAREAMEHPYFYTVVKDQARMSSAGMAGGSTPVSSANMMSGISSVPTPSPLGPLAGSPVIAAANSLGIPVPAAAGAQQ
T3 sequence (P67874 2-215 partner limits assumed): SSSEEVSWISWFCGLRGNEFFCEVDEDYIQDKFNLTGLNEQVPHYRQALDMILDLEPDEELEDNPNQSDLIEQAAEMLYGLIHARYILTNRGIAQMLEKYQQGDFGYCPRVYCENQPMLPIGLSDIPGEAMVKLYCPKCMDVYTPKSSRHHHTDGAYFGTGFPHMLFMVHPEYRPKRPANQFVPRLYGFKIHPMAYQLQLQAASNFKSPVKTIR
T1 sequence (P12931 whole entry, species assumed): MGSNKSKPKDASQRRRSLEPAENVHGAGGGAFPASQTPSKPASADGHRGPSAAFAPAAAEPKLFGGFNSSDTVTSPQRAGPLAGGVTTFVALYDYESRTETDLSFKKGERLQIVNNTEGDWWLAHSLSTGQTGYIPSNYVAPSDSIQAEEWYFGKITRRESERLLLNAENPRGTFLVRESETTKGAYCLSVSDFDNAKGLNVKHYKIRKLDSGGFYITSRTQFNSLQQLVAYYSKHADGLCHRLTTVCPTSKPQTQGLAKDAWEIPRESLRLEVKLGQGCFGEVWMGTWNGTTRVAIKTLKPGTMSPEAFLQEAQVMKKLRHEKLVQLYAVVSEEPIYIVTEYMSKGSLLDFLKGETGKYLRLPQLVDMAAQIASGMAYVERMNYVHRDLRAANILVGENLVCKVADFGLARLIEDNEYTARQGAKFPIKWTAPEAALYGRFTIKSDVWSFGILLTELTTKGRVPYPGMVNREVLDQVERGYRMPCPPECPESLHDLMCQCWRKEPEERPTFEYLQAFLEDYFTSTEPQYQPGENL

SMILES	IC50 (PKC-α) [nM]	IC50 (PKC-β2) [nM]	IC50 (src) [nM]	IC50 (PKC-β1) [nM]	IC50 [1] [nM]	IC50 (casein protein kinase II) [nM]	IC50 [2] [nM]
O=C1NC(=O)C2=C1c1cn(c3ccccc13)CCCC(COCc1ccccc1)CCn1cc2c2ccccc21 (racemic) [Example 30, (±)-3,4-[(N,N'-1,1'-(3"-(benzyloxymethylene)hexane)-bis-(3,3'-indolyl)]-1H-pyrrole-2,5-dione]	> 100000	2000	> 100000	1000	> 100000	> 10000	> 10000
O=C1NC(=O)C2=C1c1cn(c3ccccc13)CCCOC(CO)CCn1cc2c2ccccc21 (stereo not shown) [Example 2, 3,4-[(N,N'-1,1')-((3"-propoxy)-3'"(O)-4'"(hydroxy)butane)-bis-(3,3'-indolyl)]-1(H)-pyrrole-2,5-dione]	4000	200	> 100000	400	> 100000	> 100000	> 100000
NCC1CCn2cc(c3ccccc32)C2=C(C(=O)NC2=O)c2cn(c3ccccc23)CCO1 (stereo not shown) [Example 4, 3,4-[(N,N'-1,1'-((2'"-ethoxy)-3'"(O)-4'"-(amino)-butane)-bis-(3,3'-indolyl)]-1(H)-pyrrole-2,5-dione trifluoroacetate salt]	300	8	37000	20		> 100000	3000
NC[C@H]1CCn2cc(c3ccccc32)C2=C(C(=O)NC2=O)c2cn(c3ccccc23)CCO1 [Example 4r]	300	21	33000	5	> 100000	> 100000	690
NC[C@@H]1CCn2cc(c3ccccc32)C2=C(C(=O)NC2=O)c2cn(c3ccccc23)CCO1 [Example 4s]	1300	33	63000	48	> 100000	> 100000	2500
NCC1CCn2cc(c3ccccc32)C2=C(C(=O)NC2=O)c2cn(c3ccccc23)CCCO1 (stereo not shown) [Example 9]	3000	160	58000	350	> 100000	> 100000	26000
CN(C)CC1CCn2cc(c3ccccc32)C2=C(C(=O)NC2=O)c2cn(c3ccccc23)CCCO1 (stereo not shown) [Example 11]	5000	100	> 100000	300	> 100000	> 100000	20000
CC(=O)NC[C@H]1CCn2cc(c3ccccc32)C2=C(C(=O)NC2=O)c2cn(c3ccccc23)CCO1 [Example 19r]	480	30	> 100000	32	> 100000	> 100000	2200
O=C1NC(=O)C2=C1c1cn(c3ccccc13)CCO[C@@H](CN1CCCC1)CCn1cc2c2ccccc21 [Example 20r]	890		74000		> 100000	> 100000	7300
O=C1NC(=O)C2=C1c1cn(c3ccccc13)CCO[C@H](CN1CCCC1)CCn1cc2c2ccccc21 [Example 20s]	3000		16000		> 100000	> 100000	6700
O=C1NC(=O)C2=C1c1cn(c3ccccc13)CCO[C@@H](CNS(=O)(=O)c1ccccc1)CCn1cc2c2ccccc21 [Example 21r]	68000	50	> 100000	180	> 100000	> 100000	
O=C1NC(=O)C2=C1c1cn(c3ccccc13)CCCCCCn1cc2c2ccccc21 [Example 28, 3,4-[(N,N'-1,1'-hexane)-bis-(3,3'-indolyl)]-1H-pyrrole-2,5-dione]	1000	80	> 100000	70		> 100000	2000
O=C1NC(=O)C2=C1c1cn(c3ccccc13)CCCC(CO)CCn1cc2c2ccccc21 (stereo not shown) [Example 31, 3,4-[(N,N'-1,1'-(3"-(hydroxy)methylene)hexane)-bis-(3,3'-indolyl)]-1H-pyrrole-2,5-dione]	300	30	> 100000	20	> 100000	> 100000	470
NCC1CCCn2cc(c3ccccc32)C2=C(C(=O)NC2=O)c2cn(c3ccccc23)CC1 (stereo not shown) [Example 32, 3,4-[(N,N'-1,1'-(3"-aminomethylene)-hexane)-bis-(3,3'-indolyl)]-1H-pyrrole-2,5-dione]	100	8	72000	10	> 100000	> 100000	900
O=C1NC(=O)C2=C1c1cn(c3ccccc13)CCCC(CNCc1ccccc1)CCn1cc2c2ccccc21 (stereo not shown) [Example 34, 3,4-[(N,N'-1,1'-(3"-(N-benzylamino)methylene)-hexane)-bis-(3,3'-indolyl)]-1H-pyrrole-2,5-dione trifluoroacetate salt]	1000	100	> 100000	100		> 100000	4000
O=C1NC(=O)C2=C1c1cn(c3ccccc13)CCCC(CN(Cc1ccccc1)Cc1ccccc1)CCn1cc2c2ccccc21 (stereo not shown) [Example 35, 3,4-[(N,N'-1,1 '-(3"-(N,N-dibenzylamino)methylene)-hexane)-bis-(3,3'-indolyl)]-1H-pyrrole-2,5-dione trifluoroacetate salt]	9000	2000	> 100000	3000		> 100000	82000
O=C1NC(=O)C2=C1c1cn(c3ccccc13)CCC[C@@H](CN1CCCC1)CCn1cc2c2ccccc21 [Example 36r, (R)-3,4-[(N,N'-1,1'-(3"-(N-pyrrolidino)methylene)-hexane)-bis-(3,3"-indolyl)]-1H-pyrrole-2,5-dione hydrochloride salt]	450	14	61000	5	> 100000	> 100000	7100
COCC1CCCn2cc(c3ccccc32)C2=C(C(=O)NC2=O)c2cn(c3ccccc23)CC1 (stereo not shown) [Example 37, 3,4-[(N,N'-1,1'-(3"-methoxymethylene)-hexane)-bis-(3,3'-indolyl)]-1H-pyrrole-2,5-dione]	700	40	> 100000	50	> 100000	> 100000	5000
CN(C)CC1CCCn2cc(c3ccccc32)C2=C(C(=O)NC2=O)c2cn(c3ccccc23)CC1 (stereo not shown) [Example 40]	600		4400		> 100000	> 100000	5000
CN(C)C[C@@H]1CCCn2cc(c3ccccc32)C2=C(C(=O)NC2=O)c2cn(c3ccccc23)CC1 [Example 40r, (R)-3,4-[(N,N'-1,1'-(3"-(N,N-dimethylamino)methylene)-hexane)-bis-(3,3'-indolyl)]-1H-pyrrole-2,5-dione hydrochloride salt]	300		71000		> 100000	> 100000	8000
O=C1NC(=O)C2=C1c1cn(c3ccccc13)CCCCCn1cc2c2ccccc21 [Example 43]	400	30	> 100000	40		> 100000	600
